# US11952364B2, “TRK inhibitors useful as anticancer drugs” (TYLIGAND BIOSCIENCE (SHANGHAI) LIMITED, priority 2018, dated 2024)
# Where two headings read alike, the source gives them in different places.
# Experiments:
# [1] = Solubility in simulated fluids and PBS; type: physicochemical; settings: for solubility: thermodynamic from solid, 25° C.
# Excerpt: According to the well-known standard methods conventional in the art for solubility determination, for example those described in Kems, Edward H. and Di Li (2008). Drug-like Properties: Concepts, Structure Design and Methods: from ADME to Toxicity Optimization. San Diego: Academic Press), the solubility properties of the compounds of the present disclosure were investigated as follows, in testing systems of FaSSGF (pH 1.6) (Biorelevant, Fasted State Simulated gastric fluids), FeSSIF (pH 5.8) (Biorelevant, Fed State Simulated Intestinal Fluid), FaSSIF (pH 6.5) (Biorelevant, Fasted State Simulated Intestinal Fluid) and PBS buffer (Hyclone, Cat No. SH30256.01B).
# Accurately weighed ˜1 mg of test compound dry powder was charged into a glass bottle, and added an appropriate volume of each of the above test system solutions, to prepare a 4 mg/mL working solution. The sample bottle was placed on a shaker at room temperature (25° C.) and shook at 1000 rpm for 1 hour, then stood overnight for equilibrium. All samples were centrifuged at 12000 rpm at 25° C. for 10 minutes. Solutions of different concentrations for each compound were prepared in DMSO as the standard solutions. 580 μL of 20% (v/v) acetonitrile aqueous solution (containing 40 ng/mL tolbutamide as internal standard) was added into each well of three microplates, and mixed uniformly. 20 μL of 4 mg/mL working solution or standard solution was added to the wells of the first microplate and mixed uniformly, from which 20 μL was taken and added to the corresponding well of the second microplate, and mixed uniformly, from which again 20 μL was taken from each well and added to the corresponding wells of the third microplate, and mixed uniformly. Mass spectrometry was adopted to analyze the samples (LC-MS/MS-014, API4000), a standard curve was developed based on the concentrations of the standard solutions, and the solubility of the test compound was calculated.
# P450 2D6 = P450 2D6 (Homo sapiens (Human), UniProt P10635); assay: Cytochrome P450 inhibition in human liver microsomes; type: in vitro ADME
# Sequence of P450 2D6 (P10635 whole entry): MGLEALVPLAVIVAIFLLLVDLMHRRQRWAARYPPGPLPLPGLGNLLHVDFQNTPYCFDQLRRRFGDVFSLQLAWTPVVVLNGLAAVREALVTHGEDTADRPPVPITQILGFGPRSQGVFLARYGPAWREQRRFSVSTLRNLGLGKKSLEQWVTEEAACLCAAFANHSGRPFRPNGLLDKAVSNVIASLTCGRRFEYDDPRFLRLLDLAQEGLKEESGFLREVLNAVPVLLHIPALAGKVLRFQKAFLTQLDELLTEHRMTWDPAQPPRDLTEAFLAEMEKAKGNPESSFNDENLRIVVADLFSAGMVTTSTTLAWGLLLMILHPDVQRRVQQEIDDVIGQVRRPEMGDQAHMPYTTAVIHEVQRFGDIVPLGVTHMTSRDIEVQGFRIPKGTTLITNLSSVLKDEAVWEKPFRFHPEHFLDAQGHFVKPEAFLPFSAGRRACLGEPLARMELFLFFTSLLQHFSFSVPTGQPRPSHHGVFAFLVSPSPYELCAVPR
# Excerpt: (§1) According to the standard methods conventional in the art for cytochrome P450 enzyme system study, for example those described in Kerns, Edward H. and Di Li (2008). Drug-like Properties: Concepts. Structure Design and Methods: from ADME to Toxicity Optimization. San Diego: Academic Press; Lin, Tong et al., In Vitro Assessment of Cytochrome P450 Inhibition: Strategies for Increasing LC/MS-Based Assay Throughput Using a One-Point IC50 Method and Multiplexing High-Performance Liquid Chromatography; J. Pharm. Sci. 2007, 96(9), 2485.), the inhibitory effect of the compounds of the present disclosure on the cytochrome P450 enzyme system was investigated analogously as follows. The test compounds were evaluated by detecting the metabolism of human liver microsomes for the substrates of different subtypes of Cyp450. The liver microsomes (Sekisui XenoTech, LLC., human liver microsomes, cat. #H0610) were slowly melted on ice, and 0.482 mL of the liver microsome solution (20 mg/mL) was added to 30 mL of 100 mM potassium phosphate solution to prepare a liver microsome working solution with a concentration of 0.316 mg/mL. The test compound and specific inhibitors of different Cyp450 subtypes (as a control) were prepared into 10 mM DMSO solutions, and then 20 μL of the 10 mM DMSO compound solution was added to 180 μL of acetonitrile to obtain a 1 mM compound solution. 2 μL of such 1 mM test compound or inhibitor solution was added to 150 μL of 0.316 mg/mL liver microsome working solution to obtain a 13.16 μM compound working solution. 45.3 mg of NADPH (SIGMA, cat. #V900362) was weighted and added into 13.59 mL of deionized water to prepare a 4 mM NADPH aqueous solution. 0.2 mL of 2 mg/mL internal standard stock solution (dexamethasone in acetonitrile) was added to 1000 mL of acetonitrile (SIGMA, cat. #271004) to prepare a reaction stop solution and stored at 4° C. 150 μL 0.316 mg/mL human liver microsome working solution was added to each well of a 96-well deep plate, and 2 μL of 1 mM specific inhibitor or test compound solution was added to the corresponding wells, and then added to each well 50 μL preheated working solution of each substrate (in 4 mM NADPH solution). After incubating for 5-40 minutes respectively (different enzymes have different incubation times), 200 μL of pre-cooled reaction stop solution was added. All samples were centrifuged at 4000 rpm for 20 minutes. 150 μL of the centrifugal supernatant was then added to a new 96-well deep plate, and added to each well 150 μL of 0.1% formic acid aqueous solution, for analysis by LC/MS/MS (SCI AP4000). The single point IC50 values were calculated according to the following formula. [formula] • (Assuming Hill slope=1) • C0=concentration of test compound and inhibitor solution
# P450 1A2 = P450 1A2 (Homo sapiens (Human), UniProt P05177); assay: as above; type: in vitro ADME
# Sequence of P450 1A2 (P05177 whole entry): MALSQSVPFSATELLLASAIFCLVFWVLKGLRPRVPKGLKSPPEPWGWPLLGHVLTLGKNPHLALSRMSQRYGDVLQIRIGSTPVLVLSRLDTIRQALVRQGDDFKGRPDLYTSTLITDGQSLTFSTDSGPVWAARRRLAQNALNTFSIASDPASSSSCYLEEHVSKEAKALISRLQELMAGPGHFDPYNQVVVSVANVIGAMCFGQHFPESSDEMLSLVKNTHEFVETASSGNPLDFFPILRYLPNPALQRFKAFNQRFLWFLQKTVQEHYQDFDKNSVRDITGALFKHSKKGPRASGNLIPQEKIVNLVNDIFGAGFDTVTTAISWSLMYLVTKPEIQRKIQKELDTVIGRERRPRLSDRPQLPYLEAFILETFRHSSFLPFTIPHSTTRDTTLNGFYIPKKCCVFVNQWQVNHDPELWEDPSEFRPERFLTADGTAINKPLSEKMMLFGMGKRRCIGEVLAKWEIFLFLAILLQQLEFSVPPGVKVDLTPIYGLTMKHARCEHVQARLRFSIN
# Excerpt: as §1
# P450 2C19 = P450 2C19 (Homo sapiens (Human), UniProt P33261); assay: as above; type: in vitro ADME
# Sequence of P450 2C19 (P33261 whole entry): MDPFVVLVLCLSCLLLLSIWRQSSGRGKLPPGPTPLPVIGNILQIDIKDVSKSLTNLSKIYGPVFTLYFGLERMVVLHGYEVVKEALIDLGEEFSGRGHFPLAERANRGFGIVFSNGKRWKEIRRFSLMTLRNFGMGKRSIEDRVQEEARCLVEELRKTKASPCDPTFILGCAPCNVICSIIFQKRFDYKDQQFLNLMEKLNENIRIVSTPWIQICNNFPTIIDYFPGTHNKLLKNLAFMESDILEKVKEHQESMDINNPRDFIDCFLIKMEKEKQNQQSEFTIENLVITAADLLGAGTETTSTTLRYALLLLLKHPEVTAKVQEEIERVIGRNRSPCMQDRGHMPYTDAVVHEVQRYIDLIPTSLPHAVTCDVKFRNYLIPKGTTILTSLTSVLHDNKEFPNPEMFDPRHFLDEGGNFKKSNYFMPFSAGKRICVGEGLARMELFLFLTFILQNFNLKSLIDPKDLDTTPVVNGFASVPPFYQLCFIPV
# Excerpt: as §1
# [2] = PBS buffer, aqueous buffer, PBS pH 7.4, read-out: Solubility PBS (pH 7.4)
# [3] = fassgf or other biorelevant, FaSSGF pH 1.6, read-out: Solubility FaSSGF (pH 1.6)
# [4] = FaSSIF pH 6.5, read-out: Solubility FaSSIF (pH 6.5)
# [5] = FeSSIF pH 5.8, read-out: Solubility FeSSEF (pH 5.8)
"solubility [1, 2]","solubility [1, 3]","solubility [1, 4]","solubility [1, 5]",IC50 (P450 2D6),IC50 (P450 1A2),IC50 (P450 2C19),SMILES,solubility compared with Merestinib ([1]; statement in words)
0.01 µg/mL,27.7 µg/mL,5.47 µg/mL,53.3 µg/mL,> 10 µM,> 10 µM,> 10 µM,"COc1ccc(C(=O)Nc2ccc(Oc3cc4cnn(C)c4cc3-c3cn[nH]c3)c(F)c2)c(=O)n1-c1ccc(F)cc1 [Example 12, N-(3-fluoro-4-(1-methyl-6-(1H-pyrazol-4-yl)-1H-indazol-5-yloxy)phenyl)-1-(4-fluorophenyl)-6-methoxy-2-oxo-1,2-dihydropyridine-3-carboxamide]",significantly improved solubility as compared with Merestinib
0.02 µg/mL,19.3 µg/mL,3.07 µg/mL,33.7 µg/mL,> 10 µM,> 10 µM,> 10 µM,"Cc1ccc(C(=O)Nc2ccc(Oc3cc4cnn(C)c4cc3-c3cn[nH]c3)c(F)c2)c(=O)n1-c1ccc(F)cc1 [Merestinib, reference compound]",–
